Values quoted from earlier work, collected in paper PMC4360375 (Journal of Medicinal Chemistry, 2015).

Test system: GABA uptake, rat synaptosome
Conditions: literature data set; ref 10.1021/jm981027k; cited from earlier work

Compound | pIC50
Cc1ccccc1/C(=C/OCCN1CCC[C@@H](C(=O)O)C1)c1cccc(F)c1 [An_1999/3_76, Fc1cc(ccc1)/C(=C\OCCN1C[C@@H](CCC1)C(O)=O)/c1ccccc1C] | 7.301
Cc1cc(F)ccc1C(=COCCN1CCC[C@@H](C(=O)O)C1)c1ccc(F)cc1C [An_1999/3_77, Fc1cc(C)c(cc1)\C(=C\OCCN1C[C@@H](CCC1)C(O)=O)\c1ccc(F)cc1C] | 7.222
Cc1ccccc1/C(=C/OCCN1CCC=C(C(=O)O)C1)c1cccc(Cl)c1 [An_1999/3_78, Clc1cc(ccc1)/C(=C\OCCN1CC(=CCC1)C(O)=O)/c1ccccc1C] | 7.222
O=C(O)[C@@H]1CCCN(CCOC=C(c2ccc(F)cc2F)c2ccc(F)cc2F)C1 [An_1999/3_79, Fc1cc(F)ccc1\C(=C\OCCN1C[C@@H](CCC1)C(O)=O)\c1ccc(F)cc1F] | 6.886
Cc1ccsc1C(=NOCCN1CCC[C@H](C(=O)O)C1)c1sccc1C [An_1999/3_80, s1ccc(C)c1\C(=N\OCCN1C[C@H](CCC1)C(O)=O)\c1sccc1C] | 7.097
Cc1ccsc1/C(=N\OCCN1CCC[C@@H](C(=O)O)C1)c1cccs1 [An_1999/3_81, s1ccc(C)c1\C(=N/OCCN1C[C@@H](CCC1)C(O)=O)\c1sccc1] | 7.155
Cc1ccccc1/C(=N/OCCN1CCC[C@H](C(=O)O)C1)c1sccc1C [An_1999/3_82, s1ccc(C)c1/C(=N\OCCN1C[C@H](CCC1)C(O)=O)/c1ccccc1C] | 7.097
Cc1ccccc1/C(=N\OCCN1CCC[C@H](C(=O)O)C1)c1sccc1C [An_1999/3_83, s1ccc(C)c1/C(=N/OCCN1C[C@H](CCC1)C(O)=O)/c1ccccc1C] | 6.886
Cc1cc(Cl)ccc1/C(=N/OCCN1CCC[C@@H](C(=O)O)C1)c1sccc1C [An_1999/3_84, Clc1cc(C)c(cc1)\C(=N\OCCN1C[C@@H](CCC1)C(O)=O)\c1sccc1C] | 7.046
Cc1ccsc1/C(=N\OCCN1CCC[C@@H](C(=O)O)C1)c1ccc(Cl)cc1Cl [An_1999/3_85, Clc1cc(Cl)ccc1\C(=N\OCCN1C[C@@H](CCC1)C(O)=O)\c1sccc1C] | 7.523
COc1cccc(/C(=N/OCCN2CCC[C@@H](C(=O)O)C2)c2sccc2C)c1 [An_1999/3_86, s1ccc(C)c1\C(=N/OCCN1C[C@@H](CCC1)C(O)=O)\c1cc(OC)ccc1] | 7.046
CCc1ccsc1C(=NOCCN1CCC[C@@H](C(=O)O)C1)c1sccc1CC [An_1999/3_87, s1ccc(CC)c1\C(=N\OCCN1C[C@@H](CCC1)C(O)=O)\c1sccc1CC] | 7.046
CCc1ccccc1C(=NOCCN1CCC=C(C(=O)O)C1)c1ccccc1CC [An_1999/3_88, O(\N=C(\c1ccccc1CC)/c1ccccc1CC)CCN1CC(=CCC1)C(O)=O] | 6.745
Cc1ccccc1/C(=N\OCCN1CCC[C@@H](C(=O)O)C1)c1ccccc1F [An_1999/3_89, Fc1ccccc1/C(=N/OCCN1C[C@@H](CCC1)C(O)=O)/c1ccccc1C] | 7.398
Cc1ccccc1/C(=N\OCCN1CCC[C@@H](C(=O)O)C1)c1ccccc1Cl [An_1999/3_90, Clc1ccccc1/C(=N/OCCN1C[C@@H](CCC1)C(O)=O)/c1ccccc1C] | 6.699
Cc1ccccc1/C(=N\OCCN1CCC[C@H](C(=O)O)C1)c1cccc(Cl)c1 [An_1999/3_91, Clc1cc(ccc1)/C(=N/OCCN1C[C@H](CCC1)C(O)=O)/c1ccccc1C] | 7.046
Cc1ccccc1/C(=N\OCCN1CCC=C(C(=O)O)C1)c1cccc(Cl)c1 [An_1999/3_92, Clc1cc(ccc1)/C(=N/OCCN1CC(=CCC1)C(O)=O)/c1ccccc1C] | 6.824
O=C(O)[C@@H]1CCCN(CCON=C(c2cccc(Cl)c2)c2cccc(Cl)c2)C1 [An_1999/3_93, Clc1cc(ccc1)\C(=N\OCCN1C[C@@H](CCC1)C(O)=O)\c1cc(Cl)ccc1] | 6.509

Compound | pIC50
O=C(O)[C@@H]1CCCN(CCON=C(c2ccc(F)cc2Cl)c2ccc(F)cc2Cl)C1 [An_1999/3_94, Clc1cc(F)ccc1\C(=N\OCCN1C[C@@H](CCC1)C(O)=O)\c1ccc(F)cc1Cl] | 7
CN1CCC[C@@H]1/C(=N\OCCN1CCC[C@@H](C(=O)O)C1)c1ccccc1 [An_1999/3_95, O(\N=C(/[C@@H]1N(CCC1)C)\c1ccccc1)CCN1C[C@@H](CCC1)C(O)=O] | 7.222
Cc1ccccc1/C(=C\OCCN1CCC[C@@H](C(=O)O)C1)c1ccccc1 [An_1999/3_96, O(\C=C(/c1ccccc1C)\c1ccccc1)CCN1C[C@@H](CCC1)C(O)=O] | 7.699
Cc1ccccc1/C(=C/OCCN1CCC[C@@H](C(=O)O)C1)c1ccccc1 [An_1999/3_97, O(\C=C(\c1ccccc1C)/c1ccccc1)CCN1C[C@@H](CCC1)C(O)=O] | 7.301
Cc1ccccc1/C(=C\OCCN1CCC[C@@H](C(=O)O)C1)c1ccc(F)cc1C [An_1999/3_99, Fc1cc(C)c(cc1)\C(=C\OCCN1C[C@@H](CCC1)C(O)=O)\c1ccccc1C] | 7.523
Cc1cc(F)ccc1C(=COCCN1CCC=C(C(=O)O)C1)c1ccc(F)cc1C [An_1999/3_100, Fc1cc(C)c(cc1)\C(=C\OCCN1CC(=CCC1)C(O)=O)\c1ccc(F)cc1C] | 7.097
Cc1ccccc1/C(=C\OCCN1CCC[C@@H](C(=O)O)C1)c1ccccc1Cl [An_1999/3_101, Clc1ccccc1/C(=C/OCCN1C[C@@H](CCC1)C(O)=O)/c1ccccc1C] | 8
COc1cccc(/C(=C/OCCN2CCC[C@@H](C(=O)O)C2)c2ccccc2C)c1 [An_1999/3_102, O(C)c1cc(ccc1)/C(=C/OCCN1C[C@@H](CCC1)C(O)=O)/c1ccccc1C] | 7.097
CCc1ccccc1C(=COCCN1CCC[C@@H](C(=O)O)C1)c1ccccc1CC [An_1999/3_103, O(\C=C(\c1ccccc1CC)/c1ccccc1CC)CCN1C[C@@H](CCC1)C(O)=O] | 7.523
CCc1ccccc1C(=COCCN1CCC=C(C(=O)O)C1)c1ccccc1CC [An_1999/3_104, O(\C=C(\c1ccccc1CC)/c1ccccc1CC)CCN1CC(=CCC1)C(O)=O] | 7.301
O=C(O)C1=CCCN(CCOC=C(c2cccc(F)c2)c2cccc(F)c2)C1 [An_1999/3_105, Fc1cc(ccc1)\C(=C\OCCN1CC(=CCC1)C(O)=O)\c1cc(F)ccc1] | 6.456
O=C(O)[C@@H]1CCCN(CCO/C=C(/c2ccc(F)cc2F)c2cc(F)ccc2F)C1 [An_1999/3_106, Fc1cc(F)ccc1/C(=C/OCCN1C[C@@H](CCC1)C(O)=O)/c1cc(F)ccc1F] | 7.301
O=C(O)[C@@H]1CCCN(CCOC=C(c2cc(F)ccc2F)c2cc(F)ccc2F)C1 [An_1999/3_107, Fc1ccc(F)cc1\C(=C\OCCN1C[C@@H](CCC1)C(O)=O)\c1cc(F)ccc1F] | 6.745
O=C(O)[C@@H]1CCCN(CCO/C=C(/c2ccccc2)c2ccccc2Cl)C1 [An_1999/3_108, Clc1ccccc1\C(=C/OCCN1C[C@@H](CCC1)C(O)=O)\c1ccccc1] | 7.301
O=C(O)[C@@H]1CCCN(CCOC=C(c2ccccc2Cl)c2ccccc2Cl)C1 [An_1999/3_109, Clc1ccccc1\C(=C\OCCN1C[C@@H](CCC1)C(O)=O)\c1ccccc1Cl] | 7.301
O=C(O)C1=CCCN(CCOC=C(c2ccccc2Cl)c2ccccc2Cl)C1 [An_1999/3_110, Clc1ccccc1\C(=C\OCCN1CC(=CCC1)C(O)=O)\c1ccccc1Cl] | 7.921
O=C(O)[C@@H]1CCCN(CCOC=C(c2ccc(F)cc2Cl)c2ccc(F)cc2Cl)C1 [An_1999/3_111, Clc1cc(F)ccc1\C(=C\OCCN1C[C@@H](CCC1)C(O)=O)\c1ccc(F)cc1Cl] | 7.18
